The source of these data is ChEMBL document CHEMBL1153244, “Tetrasubstituted pyridines as potent and selective AKT inhibitors: Reduced CYP450 and hERG inhibition of aminopyridines” (Bioorg Med Chem Lett, 2010).

The test system of data set [1] is BT-474. Nature of the data set: Antiproliferative activity against human BT474 cells. Type of data set: functional, cell-based.
Data set [2] addresses Cytochrome P450 3A4 (Homo sapiens, UniProt P08684). Nature of the data set: Inhibition of CYP3A4. Type of data set: ADME.
The target in data set [3] is RAC-alpha serine/threonine-protein kinase (Homo sapiens, UniProt P31749). Nature of the data set: Inhibition of human AKT1.
RAC-alpha serine/threonine-protein kinase, sequence (P31749 whole entry): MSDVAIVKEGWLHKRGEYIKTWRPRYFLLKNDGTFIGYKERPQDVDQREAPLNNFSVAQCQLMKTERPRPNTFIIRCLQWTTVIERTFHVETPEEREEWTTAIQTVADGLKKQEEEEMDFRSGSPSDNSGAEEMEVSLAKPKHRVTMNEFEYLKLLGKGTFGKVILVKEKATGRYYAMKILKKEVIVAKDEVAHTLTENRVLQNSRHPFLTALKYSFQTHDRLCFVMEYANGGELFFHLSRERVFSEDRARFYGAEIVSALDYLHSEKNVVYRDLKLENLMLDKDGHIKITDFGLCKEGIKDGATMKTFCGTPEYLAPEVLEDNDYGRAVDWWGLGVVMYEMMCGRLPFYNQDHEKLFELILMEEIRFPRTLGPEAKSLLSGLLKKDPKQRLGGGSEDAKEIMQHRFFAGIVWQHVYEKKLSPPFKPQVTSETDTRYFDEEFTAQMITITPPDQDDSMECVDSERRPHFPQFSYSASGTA
Data set [4] concerns the target RAC-beta serine/threonine-protein kinase (Homo sapiens, UniProt P31751). The data set is described as follows: Inhibition of human AKT2.
For data set [5], the target named is RAC-gamma serine/threonine-protein kinase (Homo sapiens, UniProt Q9Y243). Nature of the data set: Inhibition of human AKT3.
RAC-gamma serine/threonine-protein kinase, sequence (Q9Y243 whole entry): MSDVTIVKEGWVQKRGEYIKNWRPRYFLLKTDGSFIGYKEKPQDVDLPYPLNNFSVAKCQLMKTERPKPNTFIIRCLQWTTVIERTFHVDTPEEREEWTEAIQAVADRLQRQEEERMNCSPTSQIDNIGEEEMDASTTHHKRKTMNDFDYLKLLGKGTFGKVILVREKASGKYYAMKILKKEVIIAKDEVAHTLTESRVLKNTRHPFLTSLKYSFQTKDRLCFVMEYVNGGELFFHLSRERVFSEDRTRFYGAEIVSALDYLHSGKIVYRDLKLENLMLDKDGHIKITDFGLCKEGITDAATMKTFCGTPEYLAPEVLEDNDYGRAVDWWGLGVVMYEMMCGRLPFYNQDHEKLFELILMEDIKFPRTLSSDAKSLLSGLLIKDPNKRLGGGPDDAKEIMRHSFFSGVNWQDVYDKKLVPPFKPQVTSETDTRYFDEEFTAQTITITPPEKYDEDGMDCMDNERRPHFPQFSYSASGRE
Data set [6] deals with Mus musculus. The data set is described as follows: Dose normalized AUC (0 to t) in mouse at 9.6 mg, ip. Conditions: in vivo. In kind it is ADME, organism-based.
In data set [7] the test system is Rattus norvegicus. The data set is described as follows: Dose normalized AUC (0 to t) in rat at 10.6 mg, iv. In kind it is ADME, organism-based. As to conditions: in vivo.
Data set [8] in a line: Clearance in rat at 10.6 mg, iv. In kind it is ADME, organism-based. As to conditions: in vivo.
Data set [9] deals with Canis familiaris. The data set is described as follows: Dose normalized AUC (0 to t) in dog at 2.4 mg, iv. Type of data set: ADME, organism-based, Canis lupus familiaris. Conditions: in vivo.
Data set [10] can be described thus: Clearance in dog at 2.4 mg, iv. Type of data set: ADME, organism-based, Canis lupus familiaris. As to conditions: in vivo.
In data set [11] the test system is Rhesus monkey. The data set is described as follows: Dose normalized AUC (0 to t) in monkey at 3.1 mg, iv. In kind it is ADME, organism-based, Macaca mulatta. As to conditions: in vivo.
Data set [12] in a line: Clearance in monkey at 3.1 mg, iv. In kind it is ADME, organism-based, Macaca mulatta. As to conditions: rhesus monkey, in vivo.
Data set [13] has as its target T1, Voltage-gated inwardly rectifying potassium channel KCNH2 (Homo sapiens, UniProt Q12809). Nature of the data set: Inhibition of human ERG relative to control.
Data set [14] relates to Mus musculus. Nature of the data set: Dose normalized AUC (0 to t) in mouse at 2.2 mg, iv. In kind it is ADME, organism-based. Conditions: in vivo.
A short description of data set [15]: Clearance in mouse at 2.2 mg, iv. Type of data set: ADME, organism-based. Conditions: in vivo.
The test system of data set [16] is Rattus norvegicus. Nature of the data set: Dose normalized AUC (0 to t) in rat at 2.4 mg, iv. Type of data set: ADME, organism-based. As to conditions: in vivo.
The nature of data set [17]: Clearance in rat at 2.4 mg, iv. In kind it is ADME, organism-based. As to conditions: in vivo.
For data set [18], the system named is Canis familiaris. Nature of the data set: Dose normalized AUC (0 to t) in dog at 3.1 mg, iv. Type of data set: ADME, organism-based, Canis lupus familiaris. As to conditions: in vivo.
Data set [19] is described as follows: Clearance in dog at 3.1 mg, iv. In kind it is ADME, organism-based, Canis lupus familiaris. As to conditions: in vivo.
For data set [20], the system named is Rhesus monkey. Nature of the data set: Dose normalized AUC (0 to t) in monkey at 3.0 mg, iv. In kind it is ADME, organism-based, Macaca mulatta. Conditions: in vivo.
A short description of data set [21]: Clearance in monkey at 3.0 mg, iv. Conditions: rhesus monkey, in vivo. In kind it is ADME, organism-based, Macaca mulatta.
Data set [22] deals with T1, Voltage-gated inwardly rectifying potassium channel KCNH2. The data set is described as follows: Inhibition of human ERG.
Data set [23] has as its system Mus musculus. Nature of the data set: Antitumor activity against human BT474 cells xenografted in ip dosed mouse assessed as inhibition of tumor growth. As to conditions: BT-474.
In data set [24] the test system is Mus musculus. Nature of the data set: Antitumor activity against human BT474 cells xenografted in mouse assessed as reduction in tumor volume at 30 mg/kg, ip. Also noted: scale not given: the % may be the effect or the level left. Conditions: route intraperitoneal.

T1 sequence (Q12809 whole entry): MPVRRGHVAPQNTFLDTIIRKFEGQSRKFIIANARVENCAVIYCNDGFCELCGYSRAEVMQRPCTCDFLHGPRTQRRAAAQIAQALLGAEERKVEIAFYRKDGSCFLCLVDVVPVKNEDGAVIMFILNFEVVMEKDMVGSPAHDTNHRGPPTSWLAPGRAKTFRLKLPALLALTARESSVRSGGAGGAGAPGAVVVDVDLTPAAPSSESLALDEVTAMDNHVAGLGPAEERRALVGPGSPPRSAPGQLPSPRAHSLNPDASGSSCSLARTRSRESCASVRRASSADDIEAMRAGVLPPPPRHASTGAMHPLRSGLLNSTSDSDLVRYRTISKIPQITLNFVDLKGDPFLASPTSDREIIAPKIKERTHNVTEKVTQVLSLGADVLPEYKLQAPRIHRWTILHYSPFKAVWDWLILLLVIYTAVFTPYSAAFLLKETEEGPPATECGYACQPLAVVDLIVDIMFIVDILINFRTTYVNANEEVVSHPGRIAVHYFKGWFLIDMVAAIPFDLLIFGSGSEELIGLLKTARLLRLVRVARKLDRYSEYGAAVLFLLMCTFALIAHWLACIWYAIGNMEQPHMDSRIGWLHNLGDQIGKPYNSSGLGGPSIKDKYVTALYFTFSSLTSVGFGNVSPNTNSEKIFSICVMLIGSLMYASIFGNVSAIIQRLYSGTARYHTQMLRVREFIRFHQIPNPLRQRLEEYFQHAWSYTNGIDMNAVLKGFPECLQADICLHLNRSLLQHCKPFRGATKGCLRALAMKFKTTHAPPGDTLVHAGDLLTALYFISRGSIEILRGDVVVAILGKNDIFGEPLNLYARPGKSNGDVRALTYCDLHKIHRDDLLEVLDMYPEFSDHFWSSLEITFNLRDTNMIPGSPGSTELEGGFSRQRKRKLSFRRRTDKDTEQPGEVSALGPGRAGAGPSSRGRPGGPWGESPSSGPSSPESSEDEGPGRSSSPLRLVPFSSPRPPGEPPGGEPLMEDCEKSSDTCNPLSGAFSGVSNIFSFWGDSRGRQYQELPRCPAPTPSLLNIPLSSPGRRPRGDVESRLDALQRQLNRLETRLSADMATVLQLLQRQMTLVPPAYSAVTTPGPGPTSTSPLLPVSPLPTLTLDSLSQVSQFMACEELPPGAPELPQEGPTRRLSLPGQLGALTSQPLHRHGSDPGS
Cytochrome P450 3A4, sequence (P08684 whole entry): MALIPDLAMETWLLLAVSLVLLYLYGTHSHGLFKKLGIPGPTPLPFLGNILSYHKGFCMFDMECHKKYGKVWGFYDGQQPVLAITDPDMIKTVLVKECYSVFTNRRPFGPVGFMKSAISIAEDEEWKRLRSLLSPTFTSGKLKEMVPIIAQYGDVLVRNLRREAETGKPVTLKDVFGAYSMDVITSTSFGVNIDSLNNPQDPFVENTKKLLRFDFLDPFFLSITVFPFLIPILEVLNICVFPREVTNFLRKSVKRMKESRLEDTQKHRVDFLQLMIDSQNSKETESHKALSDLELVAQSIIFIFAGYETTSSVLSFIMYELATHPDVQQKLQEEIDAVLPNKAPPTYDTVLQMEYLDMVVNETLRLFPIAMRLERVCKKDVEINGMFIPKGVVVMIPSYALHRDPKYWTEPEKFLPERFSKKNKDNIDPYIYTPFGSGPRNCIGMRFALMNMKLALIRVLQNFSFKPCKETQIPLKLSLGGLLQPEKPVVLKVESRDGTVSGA
RAC-beta serine/threonine-protein kinase, sequence (P31751 whole entry): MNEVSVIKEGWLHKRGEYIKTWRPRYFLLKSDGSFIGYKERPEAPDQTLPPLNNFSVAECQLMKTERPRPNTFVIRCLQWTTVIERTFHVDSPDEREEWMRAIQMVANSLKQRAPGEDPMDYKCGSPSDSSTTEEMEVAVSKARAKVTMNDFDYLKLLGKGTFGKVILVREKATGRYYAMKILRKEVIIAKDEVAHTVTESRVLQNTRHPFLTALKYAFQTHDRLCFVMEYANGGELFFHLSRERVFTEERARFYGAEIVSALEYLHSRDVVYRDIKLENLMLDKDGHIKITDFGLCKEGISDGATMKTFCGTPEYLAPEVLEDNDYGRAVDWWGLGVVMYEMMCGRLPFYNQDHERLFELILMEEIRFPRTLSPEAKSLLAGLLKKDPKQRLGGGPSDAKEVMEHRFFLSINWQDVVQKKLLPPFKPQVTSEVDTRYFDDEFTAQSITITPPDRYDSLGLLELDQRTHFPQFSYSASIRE

Consider `Cc1occc1-c1nc(N)c(OC[C@@H](N)Cc2ccccc2)cc1-c1cnc2[nH]nc(C)c2n1`, for which the IC50 was determined as 580 nM in data set [1]; 3200 nM in data set [2]; 6 nM in [3]; 130 nM in data set [4]; 6 nM in data set [5].
For the compound `Cc1occc1-c1nc(N)c(OC[C@@H](N)Cc2c(C#N)[nH]c3ccccc23)cc1-c1cnc2[nH]nc(C)c2n1`, the IC50 in data set [1] worked out at 2800 nM; in [2], 1600 nM; in data set [3], 1 nM; in [4] it was 7 nM; in [5] it was 1 nM.
Take `Cc1occc1-c1nc(N)c(OC[C@@H](N)Cc2c[nH]c3ccccc23)cc1-c1cnc2[nH]nc(C)c2c1`: the IC50 in [1] is 470 nM; in data set [2], 1000 nM; in data set [3], 1 nM; in data set [4], 15 nM; in [5], 2 nM.
For `Cc1occc1-c1nc(N)c(OC[C@@H](N)Cc2c[nH]c3ccccc23)cc1-c1ccc2[nH]nc(C)c2c1` the same measures were 200 nM, 100 nM, 3 nM, 15 nM and 1 nM.
On to `Cc1occc1-c1nc(N)c(OC[C@@H](N)Cc2c[nH]c3ccccc23)cc1-c1cc2c(C)n[nH]c2cn1`, for which the half-inhibitory concentration (IC50) in data set [1] worked out at 300 nM; in data set [2], 1300 nM; in [3], 1 nM; in data set [4] it was 13 nM; in [5], 3 nM.
As for `Cc1occc1-c1nc(N)c(OC[C@@H](N)Cc2c(C(N)=O)[nH]c3ccccc23)cc1-c1cnc2[nH]nc(C)c2n1`, the IC50 is more than 10000 nM in data set [1], 1 nM in [3], 15 nM in data set [4] and 1 nM in [5].
On to `Cc1n[nH]c2ncc(-c3cc(OC[C@@H](N)Cc4c[nH]c5ccccc45)c(C#N)nc3-c3ccoc3)nc12`, for which the IC50 was found to be 790 nM in data set [2], 10 nM in [3], 250 nM in data set [4] and 19 nM in [5].
Take `Cc1n[nH]c2ncc(-c3cc(OC[C@@H](N)Cc4c[nH]c5ccccc45)cnc3-c3ccoc3)nc12`: the AUC stood at 96 ng·h/mL/mg in data set [6], 301 ng·h/mL/mg in [7], 425 ng·h/mL/mg in data set [9] and 386 ng·h/mL/mg in data set [11]. Moreover, the figures for the clearance in data set [8], in data set [10] and in data set [12] were 53.2 mL/min/kg, 34.4 mL/min/kg and 39.1 mL/min/kg, respectively.
In the case of `Cc1nc(-c2ccoc2)c(-c2cnc3[nH]nc(C)c3n2)cc1OC[C@@H](N)Cc1c[nH]c2ccccc12`, the IC50 was found to be 1260 nM in data set [1]; 630 nM in data set [2]; 3 nM in [3]; 63 nM in data set [4]; 10 nM in [5].
For `Cc1occc1-c1nc(N)c(OC[C@@H](N)Cc2c(Cl)[nH]c3ccccc23)cc1-c1cnc2[nH]nc(C)c2n1` the same measures were 150 nM, 500 nM, 1 nM, 12 nM and 2 nM.
For `Cc1occc1-c1ncc(OC[C@@H](N)Cc2c[nH]c3ccccc23)cc1-c1cnc2[nH]nc(C)c2n1`, the IC50 came out at 290 nM in data set [1], 630 nM in data set [2], 1 nM in data set [3] and 25 nM in data set [4]. Also, the “inhibition (INH)” value in data set [13] came to 83.4%.
Take `Cc1occc1-c1nc(N)c(OC[C@@H](N)Cc2c[nH]c3ccccc23)cc1-c1cnc2[nH]nc(C)c2n1`: the IC50 in data set [1] came to 310 nM; in data set [2] it was 5000 nM; in data set [22] it was 10400 nM; in data set [3], 1 nM; in data set [4], 19 nM; in data set [5], 2 nM. Also, the AUC in data set [14] was found to be 170 ng·h/mL/mg; in [16], 303 ng·h/mL/mg; in data set [18], 630 ng·h/mL/mg; in [20], 853 ng·h/mL/mg. The clearance came out at 98.9 mL/min/kg in data set [15], 46 mL/min/kg in [17], 25.3 mL/min/kg in [19] and 22.3 mL/min/kg in data set [21]. Moreover, the “inhibition (INH)” value in data set [13] was 95%. Besides, the Activity result was “Dose-dependent effect” in [23] and 59% in data set [24].
Take `CCNc1nc(-c2ccoc2)c(-c2cnc3[nH]nc(C)c3n2)cc1OC[C@@H](N)Cc1ccccc1`: the IC50 is 3900 nM in data set [1]; 5000 nM in data set [2]; 500 nM in data set [3]; 6300 nM in [4]; 500 nM in data set [5].
